Values belong to the substance of their own block, whether it stands above or below them. {6-FAM} = 6-carboxyfluorescein label; {Dabcyl} = Dabcyl quencher
Columns and labels:
α-thrombin [1] = molecular target: T1, α-thrombin (Homo sapiens, UniProt P00734); assay: FRET-based signaling aptamer binding to α-thrombin (6-FAM quenching); details: 100 nM aptamer, 500 nM α-thrombin
T1 construct: Human oa-thrombin (M.W. ˜36.7 kDa); purchased Haematologic Technologies Inc. (Essex Junction, Vt.)
Excerpt: Dye-labeled aptamers were obtained from Integrated DNA Technologies, Inc. (Coralville, Iowa). The sequences of the 15mer and 27mer thrombin-aptamer are 5′-GGT TGG TGT GGT TGG-3′ (SEQ ID NO 1), and 5′-ACCCGTGGTAGGGTAGGATGGGGTGGT-3′ (SEQ ID NO 2) respectively. For FRET-based assays, both aptamers were dual-labeled with 6-FAM at the 5′ end and Dabcyl at the 3′ end. For fluorescence anisotropy assays, both aptamer sequences were labeled with only TAMRA at the 3′ end. A control 15mer aptamer was labeled with only 6-FAM at the 3′ end. All aptamers were purified with HPLC. […]
Fluorescence measurements were performed on a Fluorolog-3 spectrofluorometer (Jobin Yvon Inc., Edison, N.J.). For FRET-based assays, the fluorescence of 6-FAM was monitored with an excitation wavelength of 488 mn and an emission wavelength of 515 nm. For anisotropy-based experiments, the fluorescence of TAMRA was monitored with 555 nm as the excitation and 580 mn as the emission wavelength. […] In the aptamer/thrombin binding experiments, a very small volume of α-thrombin at a high concentration was added to an aptamer solution in the cuvette to make a molar ratio of aptamer and thrombin 1:1, and the fluorescence signals were recorded before and after the addition. […]

thrombin = molecular target: T2, thrombin (Homo sapiens, UniProt P00734); assay: Kinetic studies of competitive assays (order of incubation, concentration dependence); type: binding; details: 100 nM FQ-15Ap, 100 nM thrombin, 500 nM HirF, 5° C., 6-FAM fluorescence
T2 construct: Human oa-thrombin (M.W. ˜36.7 kDa); purchased Haematologic Technologies Inc. (Essex Junction, Vt.)
Experimental: Experiments were conducted in a 100 μL cuvette in the spectrofluorometer. While the detection system was running, the reaction samples were quickly mixed together. Data were recorded from the point of mixing to when the signal reached the plateau and stabilized. The reaction was regarded completed when the signal was at the plateau. […] The temperatures of reactions were maintained using a RTE-111 water bath/circulator (Neslab Instruments, Inc., Newington, N.H.).
In order to evaluate the possibilities of such false negatives in the assays, a comparison of the reaction rates of aptamer and prey proteins with thrombin were conducted. One direct way to conduct the comparison is to change the order the aptamer and the prey protein are incubated with thrombin. In one experiment, the prey protein was incubated with thrombin first and then the aptamer was used to displace the prey protein from the thrombin/protein complex. In another experiment, the order of adding aptamer and prey protein to thrombin was reversed. […]
Another indirect method was also used to study the effects of aptamer on thrombin/protein interactions. […] Different concentrations of AT3 were added to thrombin/T-15Ap incubation solution and the anisotropy of the aptamer was monitored as AT3 would displace T-15Ap.

α-thrombin [2] = molecular target: T1, α-thrombin; details: stated as known property; cited from earlier work
α-thrombin [3] = molecular target: T1, α-thrombin; details: reported value used for the calculation; read-out: reported 15mer aptamer-thrombin Kd/AT; cited from earlier work
α-thrombin [4] = molecular target: T1, α-thrombin; assay: Fluorescence anisotropy of TAMRA-labeled aptamer on binding α-thrombin; details: aptamer/α-thrombin 1:1
Experimental: Fluorescence measurements were performed on a Fluorolog-3 spectrofluorometer (Jobin Yvon Inc., Edison, N.J.). For FRET-based assays, the fluorescence of 6-FAM was monitored with an excitation wavelength of 488 mn and an emission wavelength of 515 nm. For anisotropy-based experiments, the fluorescence of TAMRA was monitored with 555 nm as the excitation and 580 mn as the emission wavelength. Slit widths were varied to yield the best signals. All measurements were carried out in a 100 μL cuvette. In the aptamer/thrombin binding experiments, a very small volume of α-thrombin at a high concentration was added to an aptamer solution in the cuvette to make a molar ratio of aptamer and thrombin 1:1, and the fluorescence signals were recorded before and after the addition. […]
where the subscripts V and H refer to the orientation (vertical or horizontal) of the polarizers for the intensity measurements, with the first subscript indicating the position of the excitation polarizer and the second for the emission polarizer. G is the G-factor of the spectrofluorometer, which is calculated as G=IHV/IHH. […] For a certain dye, the G-factor would be measured and used throughout the experiments that used the same dye. […] For TAMRA, all intensities were measured at an emission wavelength of 580 nm with an excitation wavelength of 555 nm. […]

6-FAM fluorescence change upon addition of α-thrombin (α-thrombin [1]): decreased 6-FAM fluorescence
Substance: 5′-(6-FAM)-ACCCGTGGTAGGGTAGGATGGGGTGGT-(Dabcyl)-3′ [FQ-27Ap]

Substance: 5′-(6-FAM)-GGT TGG TGT GGT TGG-(Dabcyl)-3′ (DNA GGTTGGTGTGGTTGG; DNA, 5' {6-FAM}, 3' {Dabcyl}, backbone not given here) [FQ-15Ap, 15mer thrombin aptamer dual-labeled with 6-FAM at the 5′ end and Dabcyl at the 3′ end]
drop of 6-FAM fluorescence when excess α-thrombin was added (α-thrombin [1]; room temperature, 50 mM NaCl buffer): about 55%
kinetic profile depending on order of incubation with thrombin (thrombin): aptamer replacing HirF was even slower than HirF replacing aptamer

Substance: 5′-ACCCGTGGTAGGGTAGGATGGGGTGGT-3′ (DNA ACCCGTGGTAGGGTAGGATGGGGTGGT; chemistry not given here) [27Ap]
capability to inhibit the enzymatic activity of thrombin (α-thrombin [2]): does not

Substance: 5′-GGT TGG TGT GGT TGG-3′ [15Ap]
Kd (α-thrombin [3]): 0.075 µM
capability to inhibit the enzymatic activity of thrombin (α-thrombin [2]): has the protein-inhibition capability

Substance: 5′-GGT TGG TGT GGT TGG-(TAMRA)-3′ [T-15Ap]
increase of anisotropy on mixing with α-thrombin (α-thrombin [4]): more than 30%
